Results as given in patent US20260198495A1, “BINARY INSECTICIDE COMPOSITION AND USE THEREOF” (SHENYANG SINOCHEM AGROCHEMICALS R & D CO., LTD., priority 2022, published 2026).

Legend:
Format in all cases: in vivo
[1] = tested on: 3rd-instar larvae of Spodoptera frugiperda; assay: Joint toxicity of I-72 + indoxacarb, corn leaf dipping, Example 3, Table 3; conditions: Spodoptera frugiperda, foliar, 72 h, A = compound I-72, B = indoxacarb, read-out: LC50
Excerpt: (§1) Test subject: 3rd-instar larvae of Spodoptera frugiperda, a sensitive strain reared indoors.
(§2) Experimental method: the dipping method was adopted. The corn leaves cultivated in the greenhouse were taken, cut into leaf segments of 5 cm long, dipped in the prepared pesticide solution for 10 s, and then cut into small pieces of 1.5 cm×1.5 cm after natural air-drying in the shade. These pieces were placed in a 24-well culture plate, and the standard test insects were introduced, with 48 insects for each treatment. The treated test insects were placed in an observation room under certain conditions. The reaction of the test insects was regularly observed, and the number of dead and live insects was investigated 72 h later.
The test conditions, the preparation method of the pesticide solution, and the evaluation method (Sun Y-P) for the joint action type of the mixture were the same as those in Example 1.

[2] = tested on: 3rd-instar larvae of Spodoptera frugiperda; assay: Joint toxicity of I-72 + spinosad, corn leaf dipping, Example 10, Table 10; conditions: Spodoptera frugiperda, foliar, 72 h, A = compound I-72, B = spinosad, read-out: LC50
Excerpt: as §1, §2
The test conditions, the preparation of the pesticide solution and the evaluation method were the same as those in Example 1.

[3] = tested on: second-instar larvae of Meloidogyne incognita; assay: In vitro joint toxicity of I-72 + fluopyram, 24-well plate, Example 32, Table 32; conditions: A = I-72, B = fluopyram, 24-well plate, 25° C., 48 hours, read-out: LC50
Description: Test target: second-instar larvae of Meloidogyne incognita, a sensitive strain reared in a greenhouse.
(§3) Preparation of the pesticide solution: according to different test requirements, the test samples were accurately weighed respectively with an electronic analytical balance. The technical pesticides were dissolved in acetone, and then diluted with 0.1% Tween 80 water into a series of pesticide solutions with a certain concentration gradient according to the experimental design dosage.
Experimental method: the prepared pesticide solutions were added to a 24-well plate in the order from low dosage to high dosage according to the experimental design. In each well of each treatment, 50 nematodes were placed. Each drug had 5 concentrations set, with 3 replicates. After the treatment, the 24-well plate was placed in a constant temperature incubator at 25° C. In addition, a blank control group was set up. The number of dead and live insects was investigated 48 hours later. […] Then, the co-toxicity coefficient of each ratio was calculated using the Sun Y-P method to evaluate the mixing effect (the same as in Example 1).

[4] = tested on: Bemisia tabaci (Gennadius) nymphs; assay: Joint toxicity of I-72 + bifenthrin, Example 40, Table 40; conditions: A = compound I-72, B = bifenthrin, cotton leaf-disk spraying, 96 hours, read-out: LC50
Description: Test target: Bemisia tabaci (Gennadius) nymphs, a sensitive strain reared indoors.
as §3
(§4) Experimental method: first, cotton leaves with neat and consistent Bemisia tabaci (Gennadius) nymphs were selected and made into leaf disks, with about 20 insects on each leaf disk. Then, they were evenly sprayed with the pesticide solution in the order from low dosage to high dosage according to the experimental design, with 1.5 mL for each leaf and 3 replicates for each treatment. In addition, a blank control was set up.
(§5) The treated test materials were placed in an observation room, and the temperature, humidity and illumination of the observation room could be adjusted as needed. The number of dead and live insects was investigated 96 hours later. […] Then, the co-toxicity coefficient of each ratio was calculated using the Sun Y-P method to evaluate the mixing effect (the same as in Example 1).

[5] = tested on: 2nd-instar larvae of Mythimna separata; assay: Joint toxicity of I-72 + beta-cyfluthrin, Example 41, Table 41; conditions: Mythimna separata, foliar; A = compound I-72, B = beta-cyfluthrin; corn leaf dipping; 72 hours; read-out: LC50
Description: Test target: 2nd-instar larvae of Mythimna separata.
as §3
(§6) Experimental method: first, corn leaves were selected and dipped in the prepared pesticide solution for 10 s in the order from low dosage to high dosage according to the experimental design. After natural air-drying in the shade, they were placed in a 9-cm-diameter Petri dish with filter paper, and uniform and healthy test insects were introduced, with 10 insects for each treatment and 3 replicates for each treatment. In addition, a blank control was set up.
as §5, with “72” for “96”

[6] = tested on: 3rd-instar larvae of Chilo suppressalis (Walker); assay: Joint toxicity of I-72 + chlorantraniliprole, Example 57, Table 57; conditions: A = compound I-72, B = chlorantraniliprole, rice stem dipping, 72 hours, read-out: LC50
Description: Test target: 3rd-instar larvae of Chilo suppressalis (Walker).
as §3
as §6, with “tender rice stems” for “corn leaves”, “control (CK)” for “control”
as §5, with “72” for “96”, “effect,” for “effect (the same”, “1.” for “1).”

[7] = tested on: Aphis gossypii Glover nymphs; assay: Joint toxicity of I-72 + flonicamid, Example 74, Table 74; conditions: Aphis gossypii; A = compound I-72, B = flonicamid; cotton leaf spraying; 48 hours; read-out: LC50
Description: Test target: Aphis gossypii Glover nymphs, a sensitive strain reared indoors.
as §3
as §4, with “uniform” for “neat”, “Aphis gossypii” for “Bemisia tabaci (Gennadius) nymphs”, “selected,” for “selected and made into leaf disks,”, “30-40” for “20”, “leaf.” for “leaf disk.”
as §5, with “48” for “96”

SMILES: CN(C(=O)c1ccc2c(c1)OC(F)(F)O2)c1cccc(C(=O)Nc2c(Br)cc(C(F)(C(F)(F)F)C(F)(F)F)cc2OC(F)F)c1F [Compound I-72]
- LC50 [1]: 0.0737 µg/mL
- LC50 [2]: 0.0777 µg/mL
- LC50 [3]: 249 µg/mL
- LC50 [4]: 10.9 µg/mL
- LC50 [5]: 0.029 µg/mL
- LC50 [6]: 1.05 µg/mL
- LC50 [7]: 2.81 µg/mL
